Reference: patent publication US20240262815A1, “HETEROARYL DERIVATIVE, METHOD FOR PREPARING SAME, AND PHARMACEUTICAL COMPOSITION COMPRISING SAME AS ACTIVE INGREDIENT” (VORONOI INC., priority 2021, published 2024)

Test system: SK-BR-3 cancer cells
Test: Inhibitory activity against proliferation of SK-BR-3 cancer cells (CellTiter-Glo)
Assay type: cell-based
Conditions: Homo sapiens, SK-BR-3, 120 h, ErbB2-overexpressing SK-BR-3 cells, 120 hours after treatment
Procedure, shortened: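 GI50 derived from % growth relative to control, measured by CellTiter-Glo luminescence after 120 h compound exposure (12 concentrations, 0.2 nM-5 μM final, n=3). BT-474 grown in RPMI-1640/20% FBS, SK-BR-3 in McCOY'S 5A/10% FBS; seeding 48 h pre-treatment.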

SMILES	GI50 [nM]
C=CC(=O)Nc1cc(Nc2cc(N3OCC[C@@H]3c3cccc(C#Cc4ccccc4)c3)ncn2)c(OC)cc1N1CCN(C)CC1 [Example 296, (R)-N-(4-methoxy-2-(4-methylpiper-azin-1-yl)-5-((6-(3-(3-(phenyleth-ynyl)phenyl)isox-azolidin-2-yl)pyr-imidin-4-yl)amino)-phenyl)acrylamide]	50 to 500
C=CC(=O)Nc1cc(Nc2cc(N3OCC[C@@H]3c3cccc(-c4ccc(O)nc4)c3)ncn2)c(OC)cc1N1CCN(C)CC1 [Example 299, (R)-N-(5-((6-(3-(3-(6-hydroxypyridin-3-yl)phenyl)isox-azolidin-2-yl)pyr-imidin-4-yl)amino)-4-methoxy-2-(4-methylpiperazin-1-yl)phenyl)acryl-amide]	500 to 5000
C=CC(=O)Nc1cc(Nc2cc(N3OCC[C@@H]3c3cccc(C#CC(C)(C)C)c3)ncn2)c(OC)cc1N1CCN(C)CC1 [Example 311, (R)-N-(5-((6-(3-(3-(3,3-dimethyl-but-1-yn-1-yl)phen-yl)isoxazolidin-2-yl)pyrimidin-4-yl)-amino)-4-methoxy-2-(4-methylpiper-azin-1-yl)phenyl)-acrylamide]	50 to 500
C=CC(=O)Nc1cc(Nc2cc(N3OCC[C@@H]3c3cccc(C#Cc4cccc(O)c4)c3)ncn2)c(OC)cc1N(C)CCN(C)C [Example 312, (R)-N-(2-((2-(dimethylamino)-ethyl)(methyl)-amino)-5-((6-(3-(3-((3-hydroxy-phenyl)ethynyl)-phenyl)isoxazol-idin-2-yl)pyrim-idin-4-yl)amino)-4-methoxyphen-yl)acrylamide]	50 to 500
C=CC(=O)Nc1cc(Nc2cc(N3OCC[C@@H]3c3cccc(-c4cccc(F)c4)c3)ncn2)c(OC)cc1N1CC2CCC(C1)N2C1CC1 [Example 316, N-(2-((1R,5S)-8-cyclopropyl-3,8-diazabicyclo-[3.2.1]octan-3-yl)-5-((6-((R)-3-(3′-fluoro-[1,1′-biphen-yl]-3-yl)isoxazol-idin-2-yl)pyrim-idin-4-yl)amino)-4-methoxyphenyl)-acrylamide]	50 to 500
C=CC(=O)Nc1cc(Nc2cc(N3OCC[C@@H]3c3cccc(-c4cccc(F)c4)c3)ncn2)c(OC)cc1N1CC2(CNC2)C1 [Example 321, (R)-N-(5-((6-(3-(3′-fluoro-[1,1′-biphenyl]-3-yl)-isoxazolidin-2-yl)-pyrimidin-4-yl)-amino)-4-meth-oxy-2-(2,6-diaza-spiro[3.3]heptan-2-yl)phenyl)acryl-amide]	50 to 500
C=CC(=O)Nc1cc(Nc2cc(N3OCC[C@@H]3c3cccc(OCc4cccc(F)c4)c3)ncn2)c(OC)cc1N1CCN(C)CC1 [Example compound 83, (R)-N-(5-((6-(3-(3-((3-fluorobenzyl)oxy)phenyl)isoxazolidin-2-yl)pyrimidin-4-yl)amino)-4-methoxy-2-(4-methylpiperazin-1-yl)phenyl)acrylamide]	50 to 500
C=CC(=O)Nc1cc(Nc2cc(N3OCC[C@@H]3c3cccc(OCc4cccc(C)n4)c3)ncn2)c(OC)cc1N1CCN(C)CC1 [Example compound 99, (R)-N-(4-methoxy-2-(4-methylpiperazin-1-yl)-5-((6-(3-(3-((6-methylpyridin-2-yl)methoxy)phenyl)isoxazolidin-2-yl)pyrimidin-4-yl)amino)phenyl)acrylamide]	50 to 500
C=CC(=O)Nc1cc(Nc2cc(N3OCC[C@@H]3c3cccc(OCc4cccc(C)n4)c3)ncn2)c(OC)cc1N1CCC(N2CCN(C3CC3)CC2)CC1 [Example compound 100, (R)-N-(2-(4-(4-cyclopropylpiperazin-1-yl)piperidin-1-yl)-4-methoxy-5-((6-(3-(3-((6-methylpyridin-2-yl)methoxy)phenyl)isoxazolidin-2-yl)pyrimidin-4-yl)amino)phenyl)acrylamide]	50 to 500
C=CC(=O)Nc1cc(Nc2cc(N3OCC[C@@H]3c3cccc(Oc4cc(F)ccc4F)c3)ncn2)c(OC)cc1N1CCN(C)CC1 [Example compound 103, (R)-N-(5-((6-(3-(3-(2,5-difluorophenoxy)phenyl)isoxazolidin-2-yl)pyrimidin-4-yl)amino)-4-methoxy-2-(4-methylpiperazin-1-yl)phenyl)acrylamide]	50 to 500
C=CC(=O)Nc1cc(Nc2cc(N3OCCC3c3ccc(Cl)c(OCc4cccc(F)c4)c3)ncn2)c(OC)cc1N1CCN(C)CC1 (stereo not drawn) [Example compound 115, N-(5-((6-(3-(4-chloro-3-((3-fluorobenzyl)oxy)phenyl)isoxazolidin-2-yl)pyrimidin-4-yl)amino)-4-methoxy-2-(4-methylpiperazin-1-yl)phenyl)acrylamide]	50 to 500
C=CC(=O)Nc1cc(Nc2cc(N3OCCC3c3cc(F)cc(OCc4nccs4)c3)ncn2)c(OC)cc1N1CCN(C)CC1 (stereo not drawn) [Example compound 132, N-(5-((6-(3-(3-fluoro-5-(thiazol-2-ylmethoxy)phenyl)isoxazolidin-2-yl)pyrimidin-4-yl)amino)-4-methoxy-2-(4-methylpiperazin-1-yl)phenyl)acrylamide]	< 50
C=CC(=O)Nc1cc(Nc2cc(N3OCC[C@@H]3c3cc(F)cc(-c4ccco4)c3)ncn2)c(OC)cc1N1CCN(C)CC1 [Example compound 133, (R)-N-(5-((6-(3-(3-fluoro-5-(furan-2-yl)phenyl)isoxazolidin-2-yl)pyrimidin-4-yl)amino)-4-methoxy-2-(4-methylpiperazin-1-yl)phenyl)acrylamide]	< 50
C=CC(=O)Nc1cc(Nc2cc(N3OCC[C@@H]3c3cc(F)cc(-c4ccco4)c3)ncn2)c(OC)cc1N1CCC(N2CCN(C3CC3)CC2)CC1 [Example compound 134, (R)-N-(2-(4-(4-cyclopropylpiperazin-1-yl)piperidin-1-yl)-5-((6-(3-(3-fluoro-5-(furan-2-yl)phenyl)isoxazolidin-2-yl)pyrimidin-4-yl)amino)-4-methoxyphenyl)acrylamide]	< 50
C=CC(=O)Nc1cc(Nc2cc(N3OCCC3c3cccc(C#Cc4ccccc4)c3)ncn2)c(OC)cc1N1CCN(C)CC1 (stereo not drawn) [Example compound 137, N-(4-methoxy-2-(4-methylpiperazin-1-yl)-5-((6-(3-(3-(phenylethynyl)phenyl)isoxazolidin-2-yl)pyrimidin-4-yl)amino)phenyl)acrylamide]	50 to 500

Further lines, results first:

GI50 [nM]	SMILES
< 50	C=CC(=O)Nc1cc(Nc2cc(N3OCC[C@@H]3c3cccc(C#Cc4cccc(F)c4)c3)ncn2)c(OC)cc1N(C)CCN(C)C [Example 313, (R)-N-(2-((2-(dimethylamino)-ethyl)(methyl)-amino)-5-((6-(3-(3-((3-fluorophen-yl)ethynyl)phenyl)-isoxazolidin-2-yl)pyrimidin-4-yl)-amino)-4-methoxy-phenyl)acrylamide]
< 50	C=CC(=O)Nc1cc(Nc2cc(N3OCC[C@@H]3c3cccc(-c4cccc(F)c4)c3)ncn2)c(OC)cc1N1CC2CN(C)CC2C1 (stereo partly drawn) [Example 319, N-(5-((6-((R)-3-(3′-fluoro-[1,1′-biphenyl]-3-yl)-isoxazolidin-2-yl)-pyrimidin-4-yl)-amino)-4-methoxy-2-(5-methylhexa-hydropyrrolo[3,4-c]pyrrol-2(1H)-yl)-phenyl)acrylamide]
< 50	C=CC(=O)Nc1cc(Nc2cc(N3OCC[C@@H]3c3cccc(Oc4cccc(C(F)(F)F)c4)c3)ncn2)c(OC)cc1N1CCN(C)CC1 [Example compound 93, (R)-N-(4-methoxy-2-(4-methylpiperazin-1-yl)-5-((6-(3-(3-(3-(trifluoromethyl)phenoxy)phenyl)isoxazolidin-2-yl)pyrimidin-4-yl)amino)phenyl)acrylamide]
< 50	C=CC(=O)Nc1cc(Nc2cc(N3OCC[C@@H]3c3cccc(Oc4cccc(C(F)(F)F)c4)c3)ncn2)c(OC)cc1N1CCC(N2CCN(C3CC3)CC2)CC1 [Example compound 94, (R)-N-(2-(4-(4-cyclopropylpiperazin-1-yl)piperidin-1-yl)-4-methoxy-5-((6-(3-(3-(3-(trifluoromethyl)phenoxy)phenyl)isoxazolidin-2-yl)pyrimidin-4-yl)amino)phenyl)acrylamide]
< 50	C=CC(=O)Nc1cc(Nc2cc(N3OCCC3c3cccc(OCc4ccccn4)c3)ncn2)c(OC)cc1N1CC[C@@H](N(C)C)C1 (stereo partly drawn) [Example compound 97]
< 50	C=CC(=O)Nc1cc(Nc2cc(N3OCCC3c3cccc(-c4ccoc4)c3)ncn2)c(OC)cc1N1CCC(N2CCN(C3CC3)CC2)CC1 (stereo not drawn) [Example compound 123, N-(2-(4-(4-cyclopropylpiperazin-1-yl)piperidin-1-yl)-5-((6-(3-(3-(furan-3-yl)phenyl)isoxazolidin-2-yl)pyrimidin-4-yl)amino)-4-methoxyphenyl)acrylamide]
< 50	C=CC(=O)Nc1cc(Nc2cc(N3OCC[C@@H]3c3cc(F)cc(-c4cnn(C)c4)c3)ncn2)c(OC)cc1N1CCC(N2CCN(C3CC3)CC2)CC1 [Example compound 129, (R)-N-(2-(4-(4-cyclopropylpiperazin-1-yl)piperidin-1-yl)-5-((6-(3-(3-fluoro-5-(1-methyl-1H-pyrazol-4-yl)phenyl)isoxazolidin-2-yl)pyrimidin-4-yl)amino)-4-methoxyphenyl)acrylamide]
< 50	C=CC(=O)Nc1cc(Nc2cc(N3OCC[C@@H]3c3cc(F)cc(-c4cccc(F)c4)c3)ncn2)c(OC)cc1N1CCN(C)CC1 [Example compound 130, (R)-N-(5-((6-(3-(3′,5-difluoro-[1,1′-biphenyl]-3-yl)isoxazolidin-2-yl)pyrimidin-4-yl)amino)-4-methoxy-2-(4-methylpiperazin-1-yl)phenyl)acrylamide]
< 50	C=CC(=O)Nc1cc(Nc2cc(N3OCC[C@@H]3c3cc(F)cc(-c4cccc(F)c4)c3)ncn2)c(OC)cc1N1CCC(N2CCN(C3CC3)CC2)CC1 [Example compound 131, (R)-N-(2-(4-(4-cyclopropylpiperazin-1-yl)piperidin-1-yl)-5-((6-(3-(3′,5-difluoro-[1,1′-biphenyl]-3-yl)isoxazolidin-2-yl)pyrimidin-4-yl)amino)-4-methoxyphenyl)acrylamide]
